# Where “and” joins values, the source holds several entries; their conditions need not be identical. Equal values may be shown once.
# Legend:
# normal human melanocytes = experiment: Depigmenting activity: melanin produced by normal human melanocytes in vitro; format: cell-based
# Method: The measurement of the depigmenting activity (reduction in the production of melanin) of compounds of formula (I) was performed by assaying the melanin produced by normal human melanocytes in vitro as follows.
# First of all, normal human melanocytes are cultured and dispensed into 384 wells. After 24 hours, the culture medium was replaced with a medium containing compounds of formula (I) to be evaluated. The cells were incubated for 72 hours before measurement of the final optical density, which measures the amount of melanin produced by the melanocytes. A […] is performed using a wide concentration range of the compounds evaluated. Thus, by making the concentrations and the measurements of melanin correspond, it is possible to determine an IC50 in μM: concentration at which 50% decrease in melanin synthesis is achieved.
# HAS3 marker = experiment: Gene marker expression (HAS3) in human epidermal keratinocytes by RT-qPCR; format: cell-based
# Method: Human epidermal keratinocytes were seeded in 48 well-culture plate and cultured for 48 hours at 37° C. and 5% of CO2 in culture medium with renewal of culture medium after the first 24 hours. At the end of incubation, culture medium was replaced by assay medium containing or not (control) raw material and cells were incubated for additional 24 hours. All experimental conditions were performed in n=3. At the end of treatment, cells were washed twice in PBS (w/o CaCl2, w/o MgCl2) and RNA extraction was performed using MagMAX™-96 Total RNA Isolation Kit (Ambion cat n° AM8130) according to manufacturer recommendation. RNA quantification and quality control were performed using Labchip GX (Perkin Elmer). Relative expression of selected markers was measured by two steps RT-qPCR. In a first step, a reverse transcription was performed using the Quantitect® Reverse transcription kit (QIAGEN) and according to manufacturer recommendation. Then, PCR experiments were performed using a LightCycler® 480 Real-Time PCR System measuring SYBR®Green incorporation (Roche).
structure (smiles),measurement,setting,value
O=C(O)c1c(O)cc(/C=C/c2ccc(O)cc2)cc1O [Compound W],IC50,"normal human melanocytes; Melanocyte, normal human melanocytes, 72 hours incubation, optical density, read-out: IC50, inhibiting effect on the production of melanin",25 µM
same,Mean percentage Depigmentation,normal human melanocytes; concentration 0.000003125 (unit not given),15.6%
same,Mean percentage Depigmentation,normal human melanocytes; concentration 0.00000625 (unit not given),22.8%
same,Mean percentage Depigmentation,normal human melanocytes; concentration 0.0000125 (unit not given),32.8%
same,Mean percentage Depigmentation,normal human melanocytes; concentration 0.000025 (unit not given),43.0%
same,Mean percentage Depigmentation,normal human melanocytes; concentration 0.00005 (unit not given),76.7%
same,Mean percentage Depigmentation,normal human melanocytes; concentration 0.0001 (unit not given),99.7%
same,Mean percentage Depigmentation,normal human melanocytes; concentration 0.0002 (unit not given),125.6%
same,Mean percentage Depigmentation,normal human melanocytes; concentration 1.5625*10^−6 (unit not given),9.7%
same,Mean percentage Depigmentation,normal human melanocytes; concentration 3.90625*10^−7 (unit not given),−0.9%
same,Mean percentage Depigmentation,normal human melanocytes; concentration 7.8125*10^−7 (unit not given),5.5%
same,depigmenting effect,normal human melanocytes; normal human melanocytes,showed a depigmenting effect
same,cytotoxicity,"normal human melanocytes; normal human melanocytes, in the concentration range tested",without cytotoxicity
same,Relative expression (UA) of HAS3,"HAS3 marker; 30 μM, 24 hours, human epidermal keratinocytes, individual replicates (n=3)",3.44E−03 UA and 3.32E−03 UA and 3.61E−03 UA
same,Fold change Mean of HAS3 expression vs control,"HAS3 marker; 30 μM, 24 hours, mean of n=3",2.45
same,Fold change (Nb) of HAS3 expression,"HAS3 marker; 30 μM, 24 hours, vs control, individual replicates (n=3)",2.432 Nb and 2.35 Nb and 2.553 Nb
same,cytotoxicity,"HAS3 marker; human epidermal keratinocytes, at 30 μM",without cytotoxicity

# Source: patent US11058619B2, “Carboxylated polyphenol derivatives and their cosmetic use” (L'ORÉAL, priority 2016, dated 2021)
